Results from patent publication US12186392B2, “Combination therapy of an anti CD20 antibody with a BTK inhibitor” (Ono Pharmaceutical Co., Ltd., priority 2013, dated 2025).
Structures can show the parent of a compound that is named as a salt.

Key:
TMD8 (ABC-DLBCL) cells [1] = experiment: Antitumor activity study of compound A or compound B (in diet) in combination with RTX in TMD8 xenograft model (Example 3); type: in vivo, SCID mice; details: for Tumor growth inhibition (TGI): vs vehicle group, RTX 3 mg/kg i.v. Q7Dx3, compound A 0.0037% in diet (6 mg/kg/day), compound B 0.012% in diet (20 mg/kg/day)
Method: Mice were xenografted on DO. […] Mice received one IV injection of Rituximab (at 3 mg/kg) once a week (D14 (Day 0), 21 (Day 7) and 28 (Day 14): Q7D×3). Tumor volumes were monitored and recorded at Day 3, Day 7, Day 11, Day 14, Day 18 and Day 21.
(§1) Female C.B-17/lcr-SCID/SCIDJcl mice (Clea Japan Inc., age at initiation of experiment: 6 weeks; hereinafter referred to as “Scid mice”) were used. The mice were kept in metal mouse cages, 3 to 5 to a cage, and underwent about 1 week acclimation period prior to being subjected to the experiment. While at our facility, the animals were allowed solid feed, CRF-1 (Oriental Yeast Co., Ltd.) and tap water (from an automatic dispenser) ad libitum. Excrement was processed with an automated cleaning system. The general condition of the animals was observed upon receipt and at the completion of acclimation. Animals having no problems with general condition were used in the experiment.
(§2) TMD8 was established from cells of a patient with diffuse large B-cell lymphoma (Tohda S et al., Leuk Res., 2006, 30: 1385-90). RPMI Medium 1640 (Invitrogen Corporation, hereinafter referred to as “RPMI”) containing 10 vol % inactivated FBS and 1 vol % Penicillin-Streptomycin liquid (Invitrogen Corporation) was prepared and used as medium. The medium was stored at 5° C. (allowable range: 1° C. to 9° C.). The cell suspension of 4×106 to 2.0×10^7 cells per dish was inoculated in a 150 mm dish containing the medium. The plates were incubated at 37° C., 5% CO2, 95% air.
(§3) At Day 0, the pellet was suspended in RPMI previously cooled on ice to obtain a 2×10^8 cells/mL cell suspension. The RPMI cell suspension and equal volume of BD Matrigel GFR (BD Biosciences) were combined to prepare a 1×10^8 cells/mL cell suspension. This was used as the cell suspension for implantation. Then, 0.1 mL of cell suspension was subcutaneously injected in the right flank of the mice under pentobarbital anesthesia, using a 25-gauge needle (Terumo Corporation).
(§4) The long axis and short axis of the tumors were measured with electronic calipers (Mitutoyo Corporation) every 2 or 4 days from TMD8 implantation to the final assessment day.
(§5) The primary endpoint was tumor volume on the final assessment day. In addition, the tumor growth inhibition rate (TGI, %) in the treatment groups versus the vehicle group was calculated. Temporal change in tumor volume and body weight from Day 0 were used as secondary endpoints. Tumor volume was calculated with the following formula. Tumor volume=Long axis of tumor×(short axis of tumor)2×0.5
The experiment in Example 3 was performed according to the method described in Example 1 except for the following “substance vehicle”, “route of drug administration” and “treatment schedule”
The comparative substance, ibrutinib (hereinafter referred to as “compound B”), was stored in sealed containers at ambient temperature, protected from light.
The dose of compound A or compound B corresponds to a daily intake of 6 or 20 mg/kg of body weight.
Treatment groups: Mice fed the same diet containing compound A or compound B after randomization. Rituximab was administered intravenously at a 3 mg/kg once weekly.
Tumor diameter was measured and tumor volume was calculated every 3 or 4 days after group assignment.

TMD8 (ABC-DLBCL) cells [2] = experiment: Antitumor activity study of compound A in combination with GA101/RTX in TMD8 xenograft model (Example 2); type: in vivo, SCID mice; details: for Tumor growth inhibition (TGI): vs vehicle group, GA101 3 mg/kg i.v. Q7Dx4, RTX 3 mg/kg i.v. Q7Dx4, compound A 10 mg/kg p.o. twice daily
Method: Mice were xenografted on DO. […] Mice received one IV injection of Rituximab (at 3 mg/kg) or one IV injection of GA101 (at 3 mg/kg) once a week (D14 (Day 0), 21 (Day 7), 28 (Day 14) and 35 (Day 21): Q7D×4). Tumor volumes were monitored and recorded twice a week.
Compound A was per os (PO) administered to mice twice daily by oral gavage via a disposable oral feeding needle (Fuchigami Kikai Co.) at 10 ml/kg. GA101/Rituximab were intravenously (IV) injected at 10 ml/kg in the caudal vein of mice. For all treatments, the administration volumes were adapted according to the closest measure of individual body weight for each mouse. The compound A b.i.d. group and the vehicle group received compound A and 0.5% MC, respectively, in the morning and afternoon at an interval of 8 h or more.
as §1, §2, §3, §4, §5
The experiment in Example 2 was performed according to the method described in Example 1 except for the following “substance vehicle” and “treatment schedule”.
(§6) Compound A was weighed out and suspended in a 0.5 w/v % methyl cellulose 400 cP solution (Wako Pure Chemical Industries, Ltd., hereinafter referred to as “0.5% MC”), using a mortar and pestle, to obtain a 1 mg/mL (10 mg/kg) suspension. The suspension was used within 7 days of preparation.
The stock solutions of both GA101 (25 mg/mL) and Rituximab (10 mg/mL) were kept at 4° C. Before administration to mice, the stock solutions were diluted in NaCl 0.9% at 0.3 mg/mL (3 mg/kg) for this study.
When the mean tumor volume reached 400 to 450 mm^3 mice were randomized in groups of 6 according to their individual tumor volumes and treatment was initiated.

[3] = Stability and uniformity of compound A suspension in 0.5% methyl cellulose; type: physicochemical; details: 1 mg/mL suspension in 0.5% MC; 7 days under refrigeration, protected from light, and a further 24 hours at ambient temperature exposed to indoor lighting
Method: Compound A was weighed out and suspended in a 0.5 w/v % methyl cellulose 400 cP solution (Wako Pure Chemical Industries, Ltd., hereinafter referred to as “0.5% MC”), using a mortar and pestle, to obtain a 1 mg/mL suspension. The suspension was used within 7 days of preparation.
as §6

[4] = system: NK cell-mediated cytotoxicity; details: Kohrt H E et al., Blood 123, 1957-1960, 2014; cited from earlier work
TMD8 (ABC-DLBCL) cells [5] = experiment: Antitumor efficacy study of compound A in combination with GA101 in SCID mice subcutaneously xenografted with TMD8 cells (Example 1); type: in vivo; details: GA101 1 and 3 mg/kg i.v. Q7Dx4
Method: Mice were xenografted on DO. Mice received one PO administration of vehicle and compound A at 10 mg/kg twice every day (Q0.5D×24) alone or in combination with one IV injection of GA101 at 1 and 3 mg/kg once a week (Q7D×4). Mice received one IV injection of Rituximab (at 3 mg/kg) or one IV injection of GA101 (at 1 and 3 mg/kg) once a week (D14 (Day 0), 21 (Day 7), 28 (Day 14) and D35 (Day 21): Q7D×4). Tumor volumes were monitored and recorded twice a week.
Antitumor efficacy study of BTK inhibitor in combination with anti-CD20 Abs in SCID mice subcutaneously xenografted with TMD8 (ABC-DLBCL) cells
The test substance, 6-amino-9-[(3R)-1-(2-butynoyl)-3-pyrrolidinyl]-7-(4-phenoxyphenyl)-7,9-dihydro-8H-purin-8-one hydrochloride (hereinafter referred to as “compound A”), was stored in sealed containers at ambient temperature, protected from light.
Compound A was weighed out and suspended in a 0.5 w/v % methyl cellulose 400 cP solution (Wako Pure Chemical Industries, Ltd., hereinafter referred to as “0.5% MC”), using a mortar and pestle, to obtain a 1 mg/mL suspension. The suspension was used within 7 days of preparation. […]
TMD8 was established from cells of a patient with diffuse large B-cell lymphoma (Tohda S et al., Leuk Res., 2006, 30: 1385-90). […] Cells were counted in a hemocytometer and their viability was at least 90% the day of cells injection. […]

In the case of `CC#CC(=O)N1CC[C@@H](n2c(=O)n(-c3ccc(Oc4ccccc4)cc3)c3c(N)ncnc32)C1` [compound A, 6-amino-9-[(3R)-1-(2-butynoyl)-3-pyrrolidinyl]-7-(4-phenoxyphenyl)-7,9-dihydro-8H-purin-8-one hydrochloride], the “Antitumor activity compared with the compound B arm” value (TMD8 (ABC-DLBCL) cells [1]; compound A 0.0037% vs compound B 0.012% in diet, alone or with RTX 3 mg/kg) is reported as “comparable to compound B (0.012%)”, the “Tumor growth inhibition (TGI)” value (TMD8 (ABC-DLBCL) cells [1]; day 0) is reported as 0.0% and the “Tumor growth inhibition (TGI)” value (TMD8 (ABC-DLBCL) cells [1]; day 3) is reported as 12.7%. The “Tumor growth inhibition (TGI)” value (TMD8 (ABC-DLBCL) cells [1]; day 7) was 42.8%, the “Tumor growth inhibition (TGI)” value (TMD8 (ABC-DLBCL) cells [1]; day 11) was 47.55% and the “Tumor growth inhibition (TGI)” value (TMD8 (ABC-DLBCL) cells [1]; day 14) was 51.1%. For the same compound, the “Tumor growth inhibition (TGI)” value (TMD8 (ABC-DLBCL) cells [1]; day 18) was 61.0%, the “Tumor growth inhibition (TGI)” value (TMD8 (ABC-DLBCL) cells [1]; day 21) was 56.1% and the “Tumor growth inhibition (TGI)” value (TMD8 (ABC-DLBCL) cells [2]; day 0) was 0.0%. For the same compound, the “Tumor growth inhibition (TGI)” value (TMD8 (ABC-DLBCL) cells [2]; day 4) was 13.7%, the “Tumor growth inhibition (TGI)” value (TMD8 (ABC-DLBCL) cells [2]; day 7) was 17.6% and the “Tumor growth inhibition (TGI)” value (TMD8 (ABC-DLBCL) cells [2]; day 11) was 34.0%. The “Tumor growth inhibition (TGI)” value (TMD8 (ABC-DLBCL) cells [2]; day 14) was 45.8%, the “Tumor growth inhibition (TGI)” value (TMD8 (ABC-DLBCL) cells [2]; day 18) was 46.4% and the “Tumor growth inhibition (TGI)” value (TMD8 (ABC-DLBCL) cells [2]; day 21) was 62.6%. For the same compound, the “Statistical significance observed after Day” value (TMD8 (ABC-DLBCL) cells [2]; monotherapy, GA101 or RTX 3 mg/kg i.v., compound A 10 mg/kg p.o.) was over 11 days and the “Stability and uniformity of suspension” value [3] was “stable and uniform”.

With `C=CC(=O)N1CCC[C@@H](n2nc(-c3ccc(Oc4ccccc4)cc3)c3c(N)ncnc32)C1` [compound B, ibrutinib] the “Tumor growth inhibition (TGI)” value (TMD8 (ABC-DLBCL) cells [1]; day 0) was 0.4%, the “Tumor growth inhibition (TGI)” value (TMD8 (ABC-DLBCL) cells [1]; day 3) was 3.2% and the “Tumor growth inhibition (TGI)” value (TMD8 (ABC-DLBCL) cells [1]; day 7) was 19.1%. For the same compound, the “Tumor growth inhibition (TGI)” value (TMD8 (ABC-DLBCL) cells [1]; day 11) was 34.91%, the “Tumor growth inhibition (TGI)” value (TMD8 (ABC-DLBCL) cells [1]; day 14) was 40.2% and the “Tumor growth inhibition (TGI)” value (TMD8 (ABC-DLBCL) cells [1]; day 18) was 39.2%. The “Tumor growth inhibition (TGI)” value (TMD8 (ABC-DLBCL) cells [1]; day 21) was 47.1%, the “Statistical significance observed after Day” value (TMD8 (ABC-DLBCL) cells [1]; monotherapy, RTX 3 mg/kg i.v., compound A 0.0037%, compound B 0.012% in diet) was over 11 days and the “Effect on RTX-dependent NK cell-mediated cytotoxicity” value [4] was “antagonizes RTX-dependent NK cell-mediated cytotoxicity”.

With “GA101: obinutuzumab, afucosylated glyco-engineered humanized B-Ly1 type II anti-CD20 antibody” the “Antitumoral effect (tumour volume curves, FIGS. 1A-1B)” value (TMD8 (ABC-DLBCL) cells [5]) was “showed an antitumoral effect”, the “Tumor growth inhibition (TGI)” value (TMD8 (ABC-DLBCL) cells [2]; day 0) was 1.7% and the “Tumor growth inhibition (TGI)” value (TMD8 (ABC-DLBCL) cells [2]; day 4) was 30.9%. For the same compound, the “Tumor growth inhibition (TGI)” value (TMD8 (ABC-DLBCL) cells [2]; day 7) was 45.0%, the “Tumor growth inhibition (TGI)” value (TMD8 (ABC-DLBCL) cells [2]; day 11) was 53.3% and the “Tumor growth inhibition (TGI)” value (TMD8 (ABC-DLBCL) cells [2]; day 14) was 63.3%. The “Tumor growth inhibition (TGI)” value (TMD8 (ABC-DLBCL) cells [2]; day 18) was 72.2% and the “Tumor growth inhibition (TGI)” value (TMD8 (ABC-DLBCL) cells [2]; day 21) was 77.9%.
